The subject of one series is JAK2/TYK2. Description: Cell level activity test of JAK2/TYK2 (IL-12 mediated IFNγ expression in NK92 cells). Format: cell-based. The note with it: IFNγ in supernatant by ELISA, NK92 cells with IL-12, 24 h. From the text:
TYK2 belongs to the JAK family, and can accept the ligand acting on the coupled receptor signal to regulate downstream signal activator of transcription (STAT) phosphorylation. Phosphorylation of STAT can regulate the expression of downstream related genes, leading to changes in physiological functions such as cell proliferation and differentiation. IL-12 mediates IFNγ expression in NK92 cells through JAK2/TYK2.
Therefore, by inhibiting TYK2 activity, inhibition of this cascade pathway leads to a decrease in IFNγ expression. However, IL-2 can induce NK92 proliferation and produce IFNγ through receptor-coupled […], so the influence of IL-2 needs to be ruled out. In this experiment, the activity of compounds on JAK2/TYK2 was evaluated by detecting the expression of IFNγ at various compound concentrations.
The test compound was dissolved in DMSO, prepared into a 20 mM stock solution, and stored at -20° C. for future use. The mother solution was diluted 10 times with DMSO to make a 2 mM solution, then diluted with medium to an initial concentration of […], and then diluted 3-fold with medium containing 5% DMSO to obtain a prepared concentration gradient of […], 33333.3 nM, 11111.1 nM, 3703.70 nM, 1234.57 nM, 411.523 nM, 137.174 nM, 45.7247 nM, 15.2416 nM; 10 ul of the above-mentioned concentration of drugs were added into a 96-well plate to obtain the final concentrations of […], 3333.3 nM, 1111.1 nM, 370.4 nM, 123.5 nM, 41.1 nM, 13.7 nM, 4.6 nM, 1.52 nM;
NK92 cells were resuscitated and cultured, 16 h before the experiment, the medium was replaced with interleukin-free medium. The mixture was centrifuged and IL-12 medium was added to resuspend the cells, seeded 95 ul in a 96-well plate at a density of 20,000 cells/well, 10 ul of the above gradual dilution was added and incubated for 24 h, centrifuged to take the supernatant, diluted 3-fold with pure water, and the IFNγ concentration of the supernatant was detected by ELISA, the IC50 value was calculated.
A general note: An ELISA detects its analyte on a solid surface through an enzyme-linked reagent.

Series [1] in a line: Pharmacokinetic evaluation in rats after intravenous injection and oral administration. It is filed as in vivo. Particulars: rat, plasma; for AUC(0-t): read-out: PK AUClast; for Cmax: read-out: PK Cmax; for half-life: read-out: PK T½ (converted). The method, then: The analytical LC/MS/MS system includes an Agilent 1200 series vacuum degasser, a binary syringe pump, an orifice plate autosampler, a column oven, and an Agilent G6430 triple quadrupole mass spectrometer with an electrospray ionization (ESI) source.
Agilent XDB-C18, 2.1 × 30 mm, 3.5 µM column was used to analysis, 5 µL sample was injected. Analytical conditions: Mobile phases were 0.1% formic acid in water (A) and 0.1% formic acid in methanol (B). The flow rate was 0.4 mL/min.
In addition, Agilent 6330 series LC/MS/MS spectrometer was used for analysis, equipped with G1312A binary syringe pump, G1367A automatic sampler and G1314C UV detector; LC/MS/MS spectrometer used ESI radiation source. Optimum analysis was achieved using standards with appropriate cation model processing and MRM conversion for each analyte. A Capcell MP-C18 column, 100 × 4.6 mm I.D., 5 µM (Phenomenex, Torrance, California, USA) was used during the analysis. Mobile phase was 5 mM ammonium acetate, 0.1% methanol in water (A): 5 mM ammonium acetate, 0.1% methanol in acetonitrile (B) (70/30, v/v); flow rate was 0.6 mL/min; column temperature was maintained at room temperature; 20 µL of sample was injected.
The present invention evaluates the pharmacokinetic studies of the compounds of the present invention in mice, rats, dogs or monkeys. The compounds of the present invention were administered in the form of aqueous solution or 2% HPMC + 1% Tween-80 aqueous solution, 5% DMSO + 5% saline solution, 4% MC or capsule. For intravenous administration, animals were dosed at about 0.5, 0.6, 1 or 2 mg/kg. The oral doses (p.o.) were 5 or 10 mg/kg for rats and mice, and 10 mg/kg for dogs and monkeys. Bloods (0.3 mL) were taken at time points 0.25, 0.5, 1.0, 2.0, 3.0, 4.0, 6.0, 8.0, 12 and 24 h and centrifuged at 3,000 or 4,000 rpm for 10 min. Plasma solutions were collected and stored at -20° C. or -70° C. until LC/MS/MS analysis as described above. […] Table 2 is the experimental results of the pharmacokinetic characteristics of the compounds provided in the examples of the present invention in rats.

A further series relates to JAK1/TYK2. The experiment in a line: Cell level activity test of JAK1/TYK2 (IFN-α induced STAT3 phosphorylation in PBMC). Format: cell-based. The note with it: Homo sapiens; P-STAT3 by ELISA in PBMC, compound 1 h, IFN-α 5000 U/mL 15 min; read-out: IC50 nM (JAK 1 /TYK2). The method, then: IFN-α can induce the phosphorylation of STAT3 downstream of JAK1/TYK2 in PBMC, and by measuring the level of STAT3 phosphorylation, the activity of the compound on JAK1/TYK2 at the cell level can be reflected.
Whole blood was collected from healthy subjects, anticoagulated with heparin sodium, and PBMC (human peripheral blood mononuclear cells) were extracted. PBMC were seeded in a 96-well culture plates at a density of 1*106/well. Positive wells and negative wells were added with the same volume of DMSO as the compound, and the final concentration of DMSO was 0.5%. The compounds were incubated with the cells at 37° C. for 1 h, and then stimulated by adding IFN-α at a final concentration of 5000 U/mL, an equal volume of medium was added to the negative wells, and incubated for 15 min. The cells were centrifuged to remove the supernatant, then lysed, and P-STAT3 was measured according to the instructions of the ELISA kit, the absorbance was read at 450 nm, and the IC50 value or inhibition rate was calculated.

Where two headings read alike, the source gives them in different places.

In the series on JAK2/TYK2 (NK92, 24 h), `COC(C)CCOc1cc(-c2cn(C)c3cnc(NC(C)=O)cc23)nc2c1CCOC21CCOC1` (stereo in doubt) [Example 43, N-(3-(4′-((R)-3-Methoxybutoxy)-4,5,5′,6′-Tetrahydro-2H-Spiro[Furan-3,8′-Pyrano[3,4-b]Pyridin]-2′-yl)-1-Methyl-1H-Pyrrolo[2,3-c]Pyridin-5-yl)Acetamide] had an IC50 of 26.4 nM. Usually Cmax stands for the highest concentration seen after dosing. In general, bioavailability refers to the share of a dose that reaches the circulation, judged against a reference dose that is usually intravenous. A lower bioavailability goes with little systemic uptake. In the case of `CC(=O)Nc1cc2c(-c3cc(OCCC(C)(C)O)c4c(n3)C3(CCOC3)OCC4)cn(C)c2cn1` (stereo not shown) [Example 26, N-(3-(4′-(3-Hydroxy-3-Methylbutoxy)-4,5,5′,6′-Tetrahydro-2H-Spiro[Furan-3, 8′-Pyrano[3,4-b]Pyridin]-2′-yl)-1-Methyl-1H-Pyrrolo[2,3-c]Pyridin-5-yl)Acetamide], in series [1] (IV 2 mg/kg), the AUC(0-t) came out at 494 ng·h/mL, the Cmax was found to be 289 ng/mL and the half-life was 1.65 h. For the same molecule, in series [1] (PO 5 mg/kg), the AUC(0-t) was found to be 2290 ng·h/mL, the Cmax turned out to be 612 ng/mL and the half-life was 3.62 h. The molecule further gave a bioavailability in series [1] (oral bioavailability, PO 5 mg/kg) of 98.5%. Moreover, the IC50 in the series with JAK1/TYK2 came to 110 nM.

Take `COCC(C)(C)COc1cc(-c2cn(C)c3cnc(NC(C)=O)cc23)nc2c1CCOC21CCOC1` (stereo not shown) [Example 30, N-(3-(4′-(3-Methoxy-2,2-Dimethylpropoxy)-4,5,5′,6′-Tetrahydro-2H-Spiro[Furan-3,8′-Pyrano[3,4-b]Pyridin]-2′-yl)-1-Methyl-1H-Pyrrolo[2,3-c]Pyridin-5-yl)Acetamide]: the IC50 with JAK2/TYK2 (NK92, 24 h) was determined as 102 nM.

In the series on JAK2/TYK2 (NK92, 24 h), `COCCOCCCOc1cc(-c2cn(C)c3cnc(NC(C)=O)cc23)nc2c1CCOC21CCOC1` (stereo not shown) [Example 32, N-(3-(4′-(3-(2-Methoxyethoxy)Propoxy)-4,5,5′,6′-Tetrahydro-2H-Spiro[Furan-3,8′-Pyrano[3,4-b]Pyridin]-2′-yl)-1-Methyl-1H-Pyrrolo[2,3-c]Pyridin-5-yl)Acetamide] had an IC50 of 30.6 nM. Take `CC(=O)Nc1cc2c(-c3cc(OCCCOC(F)F)c4c(n3)C3(CCOC3)OCC4)cn(C)c2cn1` (stereo not shown) [Example 33, N-(3-(4′-(3-(Difluoromethoxy)Propoxy)-4,5,5′,6′-Tetrahydro-2H-Spiro[Furan-3,8′-Pyrano[3,4-b]Pyridin]-2′-yl)-1-Methyl-1H-Pyrrolo[2,3-c]Pyridin-5-yl)Acetamide]: the IC50 in the series with JAK2/TYK2 (NK92, 24 h) stood at 38.6 nM. For the molecule `CC(=O)Nc1cc2c(-c3cc(OCCCO)c4c(n3)C3(CCOC3)OCC4)cn(C)c2cn1` (stereo not shown) [Example 34, N-(3-(4′-(3-Hydroxypropoxy)-4,5,5′,6′-Tetrahydro-2H-Spiro[Furan-3,8′-Pyrano[3,4-b]Pyridin]-2′-yl)-1-Methyl-1H-Pyrrolo[2,3-c]Pyridin-5-yl)Acetamide], in the series with JAK2/TYK2 (NK92, 24 h), the IC50 was 34.3 nM. In the case of `CC(=O)Nc1cc2c(-c3cc(OCC(C)(C)CO)c4c(n3)C3(CCOC3)OCC4)cn(C)c2cn1` (stereo not shown) [Example 35, N-(3-(4′-(3-Hydroxy-2,2-Dimethylpropoxy)-4,5,5′,6′-Tetrahydro-2H-Spiro[Furan-3,8′-Pyrano[3,4-b]Pyridin]-2′-yl)-1-Methyl-1H-Pyrrolo[2,3-c]Pyridin-5-yl)Acetamide], the IC50 in the series on JAK2/TYK2 (NK92, 24 h) is 20.4 nM. Consider `COCCOCc1cc(-c2cn(C)c3cnc(NC(C)=O)cc23)nc2c1CCOC21CCOC1` (stereo not shown) [Example 36, N-(3-(4′-((2-Methoxyethoxy)Methyl)-4,5,5′,6′-Tetrahydro-2H-Spiro[Furan-3,8 ‘-Pyrano[3,4-b]Pyridin]-2′-yl)-1methyl-1H-Pyrrolo[2,3-c]Pyridin-5-yl)Acetamide], for which the IC50 with JAK2/TYK2 (NK92, 24 h) is 52.9 nM. With `CC(=O)Nc1cc2c(-c3cc(OCC[C@@H](C)O)c4c(n3)C3(CCOC3)OCC4)cn(C)c2cn1` (stereo partly drawn) [Example 37, N-(3-(4′-((R)-3-Hydroxybutoxy)-4,5,5′,6′-Tetrahydro-2H-Spiro[Furan-3,8′-Pyrano[3,4-b]Pyridin]-2′-yl)-1-Methyl-1H-Pyrrolo[2,3-c]Pyridin-5-yl)Acetamide], the IC50 in the series with JAK2/TYK2 (NK92, 24 h) was found to be 20 nM. In the series on JAK2/TYK2, `CO[C@@H](C)CCOc1cc(-c2cn(C)c3cnc(NC(C)=O)cc23)nc2c1CCOC21CCOC1` (stereo partly drawn) [Example 38, N-(3-(4′-((S)-3-Methoxybutoxy)-4,5,5′,6′-Tetrahydro-2H-Spiro[Furan-3,8′-Pyrano[3,4-b]Pyridin]-2′-yl)-1-Methyl-1H-Pyrrolo[2,3-c]Pyridin-5-yl)Acetamide] came in with an IC50 of 27.7 nM. For the molecule `CC(=O)Nc1cc2c(-c3cc(OCC[C@H](C)O)c4c(n3)C3(CCOC3)OCC4)cn(C)c2cn1` (stereo partly drawn) [Example 39, N-(3-(4′-((S)-3-Hydroxybutoxy)-4,5,5′,6′-Tetrahydro-2H-Spiro[Furan-3,8′-Pyrano[3,4-b]Pyridin]-2′-yl)-1-Methyl-1H-Pyrrolo[2,3-c]Pyridin-5-yl)Acetamide], in the series with JAK2/TYK2 (NK92, 24 h), the IC50 worked out at 11 nM. As for `CC(=O)Nc1cc2c(-c3cc(OCCC(C)(C)C#N)c4c(n3)C3(CCOC3)OCC4)cn(C)c2cn1` (stereo not shown) [Example 40, N-(3-(4′-(3-Cyano-3-Methylbutoxy)-4,5,5′,6′-Tetrahydro-2H-Spiro[Furan-3,8′-Pyrano[3,4-b]Pyridin]-2′-yl)-1-Methyl-1H-Pyrrolo[2,3-c]Pyridin-5-yl)Acetamide], the IC50 with JAK2/TYK2 (NK92, 24 h) was 152 nM. Consider `CC(=O)Nc1cc2c(-c3cc(CC#N)c4c(n3)C3(CCOC3)OCC4)cn(C)c2cn1` (stereo not shown) [Example 42, N-(3-(4′-(Cyanomethyl)-4,5,5′,6′-Tetrahydro-2H-Spiro[Furan-3,8′-Pyrano[3,4-b]Pyridin]-2′-yl)-1-Methyl-1H-Pyrrolo[2,3-c]Pyridin-5-yl)Acetamide], for which the IC50 in the series with JAK2/TYK2 (NK92, 24 h) turned out to be 9.6 nM.

In the series on JAK2/TYK2 (NK92, 24 h), `CC(=O)Nc1cc2c(-c3cc(SCCC(C)(C)O)c4c(n3)C3(CCOC3)OCC4)cn(C)c2cn1` (stereo not shown) [Example 44, N-(3-(4′-((3-Hydroxy-3-Methylbutyl)Thio)-4,5,5′,6′-Tetrahydro-2H-Spiro[Furan-3,8′-Pyrano[3,4-b]Pyridin]-2′-yl)-1-Methyl-1H-Pyrrolo[2,3-c]Pyridin-5-yl)Acetamide] displayed an IC50 of 40.2 nM. Same read-out and setting: the result for `CC(=O)Nc1cc2c(-c3cc(COCC(C)(C)O)c4c(n3)C3(CCOC3)OCC4)cn(C)c2cn1` (stereo not shown) [Example 45, N-(3-(4′-((2-Hydroxy-2-Methylpropoxy)Methyl)-4,5,5′,6′-Tetrahydro-2H-Spiro[Furan-3,8′-Pyrano[3,4-b]Pyridin]-2′-yl)-1-Methyl-1H-Pyrrolo[2,3-c]Pyridin-5-yl)Acetamide] reads 111 nM.

The record behind these values is US20230339977A1, “SUBSTITUTED HETEROARYL COMPOUND, AND COMPOSITION AND APPLICATION THEREOF” (SUNSHINE LAKE PHARMA CO., LTD., priority 2020, published 2023).
